Experimental data from ChEMBL document CHEMBL5523759, “Discovery of Novel HDAC3 Inhibitors with PD-L1 Downregulating/Degrading and Antitumor Immune Effects” (J Med Chem, 2024).
Calls of active or inactive are those of the source. No cut-off for these calls is given here.

Columns and labels:
[1] = target: T1, Protein deacetylase HDAC6 (Mus musculus) (UniProt Q9Z2V5); assay: Inhibition of HDAC6 in mouse B16-F10 cells assessed as effect on acetylated alpha-tubulin level at 1 to 2 uM measured for 24 hrs by Western blot analysis; format: cell-based; settings: dose 1-2 µM
T1 sequence (whole entry): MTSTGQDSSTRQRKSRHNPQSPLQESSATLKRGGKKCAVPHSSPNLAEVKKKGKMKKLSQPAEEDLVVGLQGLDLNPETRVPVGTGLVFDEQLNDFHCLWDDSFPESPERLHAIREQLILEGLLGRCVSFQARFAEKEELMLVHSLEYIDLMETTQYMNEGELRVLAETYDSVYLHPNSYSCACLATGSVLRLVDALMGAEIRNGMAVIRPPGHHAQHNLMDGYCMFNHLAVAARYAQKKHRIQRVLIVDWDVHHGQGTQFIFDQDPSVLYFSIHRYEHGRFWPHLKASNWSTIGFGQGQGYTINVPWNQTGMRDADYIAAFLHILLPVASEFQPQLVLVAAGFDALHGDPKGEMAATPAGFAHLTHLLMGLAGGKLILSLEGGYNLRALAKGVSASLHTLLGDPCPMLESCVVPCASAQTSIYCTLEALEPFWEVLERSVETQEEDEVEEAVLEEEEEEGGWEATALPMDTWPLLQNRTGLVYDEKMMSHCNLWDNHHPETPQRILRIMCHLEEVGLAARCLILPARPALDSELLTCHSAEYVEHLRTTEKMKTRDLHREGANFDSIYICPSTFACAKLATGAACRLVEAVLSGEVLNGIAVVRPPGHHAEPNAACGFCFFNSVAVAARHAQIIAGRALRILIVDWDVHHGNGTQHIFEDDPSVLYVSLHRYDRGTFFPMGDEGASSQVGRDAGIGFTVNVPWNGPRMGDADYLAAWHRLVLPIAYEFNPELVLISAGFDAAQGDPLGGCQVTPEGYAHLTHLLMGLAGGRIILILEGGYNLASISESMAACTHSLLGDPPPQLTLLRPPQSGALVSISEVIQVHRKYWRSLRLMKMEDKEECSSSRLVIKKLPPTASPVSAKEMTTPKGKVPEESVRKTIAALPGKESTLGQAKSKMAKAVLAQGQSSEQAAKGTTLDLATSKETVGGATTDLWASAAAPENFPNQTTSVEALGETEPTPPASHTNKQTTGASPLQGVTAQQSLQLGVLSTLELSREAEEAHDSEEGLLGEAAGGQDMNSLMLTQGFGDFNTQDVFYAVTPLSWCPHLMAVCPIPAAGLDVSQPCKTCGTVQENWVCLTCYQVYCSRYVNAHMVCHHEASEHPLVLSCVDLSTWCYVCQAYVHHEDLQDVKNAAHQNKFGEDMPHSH

[2] = Clearance in Sprague-Dawley rat at 2 mg/kg, iv measured up to 12 hrs by LC-MS/MS analysis; format: ADME, organism-based; settings: in vivo
B16-F10 [3] = assay: Antitumor immunity against mouse B16-F10 cells implanted in C57BL/6 mouse model assessed as increase in CD3+ CD4+ T cells at 25 mg/kg, po administered for 9 days (reference value: 1.50%); format: functional; settings: time 9 day
[4] = Acute toxicity in po dosed C57BL/6J mouse assessed as lethal dose administered for 14 days; format: organism-based; settings: in vivo, time 14 day
[5] = Toxicity in C57BL/6 mouse implanted with mouse B16-F10 cells assessed as spleen damage at 25 mg/kg, po administered for 9 days by H and E staining based analysis; format: organism-based; settings: in vivo, 216 h, time 9 day
[6] = Metabolic stability in rat liver microsome assessed as half life; format: ADME; settings: liver microsomes
B16-F10 [7] = assay: Antitumor activity against mouse B16-F10 cells implanted in C57BL/6 mouse model assessed as reduction in tumor volume at 25 mg/kg, IG administered for 9 days; format: functional, organism-based; settings: time 9.0 day
[8] = Toxicity in C57BL/6 mouse implanted with mouse B16-F10 cells assessed as heart damage at 25 mg/kg, po administered for 9 days by H and E staining based analysis; format: organism-based; settings: in vivo, 216 h, time 9 day
[9] = Toxicity in C57BL/6 mouse implanted with mouse B16-F10 cells assessed as kidney damage at 25 mg/kg, po administered for 9 days by H and E staining based analysis; format: organism-based; settings: in vivo, 216 h, time 9 day
[10] = Metabolic stability in mouse liver microsome assessed as parent compound remaining measured at 15 mins; format: ADME; settings: liver microsomes, read-out: Stability
[11] = Metabolic stability in rat liver microsome assessed as parent compound remaining measured at 30 mins; format: ADME; settings: liver microsomes, read-out: Stability
[12] = Acute toxicity in C57BL/6J mouse assessed as survival rate at 500 mg/kg, po administered for 14 days; format: organism-based; settings: in vivo, time 14 day
[13] = MRT (0 to t) in Sprague-Dawley rat at 2 mg/kg, iv measured up to 12 hrs by LC-MS/MS analysis; format: ADME, organism-based; settings: in vivo
[14] = Toxicity in C57BL/6 mouse implanted with mouse B16-F10 cells assessed as lung damage at 25 mg/kg, po administered for 9 days by H and E staining based analysis; format: organism-based; settings: in vivo, 216 h, time 9 day
[15] = Toxicity in C57BL/6 mouse implanted with mouse B16-F10 cells assessed as liver damage at 25 mg/kg, po administered for 9 days by H and E staining based analysis; format: organism-based; settings: in vivo, 216 h, time 9 day
[16] = Apparent volume of distribution in Sprague-Dawley rat at 20 mg/kg, po measured up to 12 hrs by LC-MS/MS analysis; format: ADME, organism-based; settings: in vivo
[17] = Cmax in Sprague-Dawley rat at 20 mg/kg, po measured up to 12 hrs by LC-MS/MS analysis; format: ADME, organism-based; settings: in vivo
[18] = Tmax in Sprague-Dawley rat at 20 mg/kg, po measured up to 12 hrs by LC-MS/MS analysis; format: ADME, organism-based; settings: in vivo
[19] = Metabolic stability in rat liver microsome assessed as parent compound remaining measured at 5 mins; format: ADME; settings: liver microsomes, read-out: Stability
[20] = Metabolic stability in rat liver microsome assessed as parent compound remaining measured immediately; format: ADME; settings: liver microsomes, read-out: Stability
[21] = Metabolic stability in mouse liver microsome assessed as half life; format: ADME; settings: liver microsomes
[22] = MRT (0 to t) in Sprague-Dawley rat at 20 mg/kg, po measured up to 12 hrs by LC-MS/MS analysis; format: ADME, organism-based; settings: in vivo
[23] = Cmax in Sprague-Dawley rat at 2 mg/kg, iv measured up to 12 hrs by LC-MS/MS analysis; format: ADME, organism-based; settings: in vivo
[24] = Metabolic stability in rat liver microsome assessed as intrinsic clearance; format: ADME; settings: liver microsomes, read-out: CLH
[25] = Half life in Sprague-Dawley rat at 2 mg/kg, iv measured up to 12 hrs by LC-MS/MS analysis; format: ADME, organism-based; settings: in vivo
B16-F10 [26] = assay: Antitumor immunity against mouse B16-F10 cells implanted in C57BL/6 mouse model assessed as increase in CD3+ CD8+ T cells at 25 mg/kg, po administered for 9 days (reference value: 1.01%); format: functional; settings: time 9 day
B16-F10 [27] = assay: Antitumor activity against mouse B16-F10 cells implanted in C57BL/6 mouse model assessed as […] in Ac-H3 expression in tumor at 25 mg/kg, po administered for 9 days by immunofluorescence analysis; format: functional, organism-based; settings: time 9.0 day
[28] = MRT (0 to infinity) in Sprague-Dawley rat at 20 mg/kg, po measured up to 12 hrs by LC-MS/MS analysis; format: ADME, organism-based; settings: in vivo

## Nc1ccccc1NC(=O)c1ccc(-c2ncc(CNc3ccccc3)s2)cc1
[1]
  inhibition: inactive

## CCCNNC(=O)c1ccc(CNC(=O)c2ncc(CNc3ccccc3)s2)cc1
[2]
  clearance: 64.5 mL/min/kg
B16-F10 [3]
  Activity: 4.16%
[4]
  LD50 at 336 h: > 1000 mg/kg
[5]
  Activity: Non-Toxic
[6]
  half-life: 23.7 min
B16-F10 [7]
  Activity: Active
[8]
  Activity: Non-Toxic
[9]
  Activity: Non-Toxic
[10]
  remaining at 0.25 h: 31.6%
[1]
  inhibition: inactive
[11]
  remaining at 0.5 h: 38.5%
[12]
  survival at 336 h: 100%
[13]
  MRT last at 12 h: 31.2 min
[14]
  Activity: Non-Toxic
[15]
  Activity: Non-Toxic
[16]
  Vz: 34.45 L/kg
[17]
  Cmax: 1040 ng/mL
[18]
  Tmax: 30 min
[19]
  remaining at 5 min: 79.9%
[20]
  remaining at 0 min: 100%
[21]
  half-life: 9.69 min
[22]
  MRT last at 12 h: 191 min
[23]
  Cmax: 725 ng/mL
[24]
  CLint scaled: 107 mL/min/kg
[25]
  half-life: 24 min
B16-F10 [26]
  Activity: 3.7%
B16-F10 [27]
  Activity: Active
[28]
  MRT inf: 269 min
